Measurements taken from ChEMBL document CHEMBL1201862, “PubChem BioAssay data set” (2004).
Active and inactive are the calls of the source.

Key:
[1] = A Cell Based Secondary Assay To Explore Cytotoxicity of Compounds that Sensitize Mycobacterium Tuberculosis to Beta-Lactam Antibiotics.; assay type: functional
[2] = molecular target: T1, Heat shock factor protein 1 (Mus musculus, UniProt P38532); experiment: enhancement of HSF1-driven luciferase signal – cell-based, NIH3T3, luminescence, dose retest, confirmation (AID 435004); assay type: functional;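 further: stress induced by proteasome inhibitor MG132 added 30 min after compound; luciferase reporter driven by HSF1 response element in NIH3T3 cells; actives raise luminescence as potentiators of the MG132 stress response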
T1 sequence (P38532 whole entry): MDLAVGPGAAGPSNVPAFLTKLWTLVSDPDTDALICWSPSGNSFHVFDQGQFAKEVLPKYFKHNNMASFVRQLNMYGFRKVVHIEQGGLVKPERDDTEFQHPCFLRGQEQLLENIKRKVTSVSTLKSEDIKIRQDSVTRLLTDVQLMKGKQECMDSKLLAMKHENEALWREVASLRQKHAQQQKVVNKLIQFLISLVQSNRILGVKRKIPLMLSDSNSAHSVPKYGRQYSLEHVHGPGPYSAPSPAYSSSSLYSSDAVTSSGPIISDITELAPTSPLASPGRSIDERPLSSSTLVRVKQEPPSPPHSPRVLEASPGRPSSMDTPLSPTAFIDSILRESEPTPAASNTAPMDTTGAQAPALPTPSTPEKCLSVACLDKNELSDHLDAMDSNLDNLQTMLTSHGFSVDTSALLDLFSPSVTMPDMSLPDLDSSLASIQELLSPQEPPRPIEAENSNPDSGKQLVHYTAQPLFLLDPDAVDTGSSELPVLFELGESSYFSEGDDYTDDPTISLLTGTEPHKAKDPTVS

HEK293 [3] = experiment: cells; conditions: Homo sapiens
[4] = reduced cellular PGC1a acetyl-lysine signal – cell-based, cherry-picked samples, dose response (AID 720514); assay type: functional;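 further: potency may reflect raised or lowered acetylation signal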
HEK293 [5] = experiment: cells; conditions: Homo sapiens; remark: listed apart in the source
[6] = Trypanosoma cruzi growth suppression in host cells – NIH3T3 host cells, beta-gal luminescence, confirmation (AID 2044); assay type: functional, cell-based;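 further: intracellular parasites grown in NIH/3T3 mouse fibroblasts as host cells; luminescent beta-galactosidase reporter signal from transgenic T. cruzi replicating inside host cells; inhibitors lower the luminescence signal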
[7] = NIH3T3 cell viability loss – ATP luminescence, mouse fibroblasts, counter-screen, dose response (AID 2010); assay type: functional, cell-based;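 further: cells exposed to compound for about 90 hours before reading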
HeLa = experiment: ATP-based viability loss in HeLa cells – cell-based, CellTiter-Glo luminescence, cherry-pick samples, cytotoxicity control for MITF activator project, dose response (AID 540259); assay type: functional; conditions: Homo sapiens
Cytochrome P450 2D6 = Cytochrome P450 2D6 (Homo sapiens, UniProt P10635);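 further: CYP2D6 member of a cytochrome P450 panel assay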
H4 = experiment: Luminescence Cell-Based Dose Response HTS to Identify Activators of 5'UTR Stem-Loop Driven Prion Protein mRNA Translation in H4 Neuroglioblastoma Cells. [Related pubchem assays: 1829 (Project Summary), 1814 (Primary HTS)]; assay type: functional; conditions: Homo sapiens
[8] = Luminescence Cell-Based Dose Response HTS to Identify Activators of Luciferase Translation or Activity in H4 […] Cells. [Related pubchem assays: 1829 (Project Summary), 1814 (Primary HTS)]; assay type: functional
[9] = molecular target: T2, Microphthalmia-associated transcription factor (Homo sapiens, UniProt O75030); experiment: reducers of TRPM1 reporter luminescence, concentration series – cell-based, SK-MEL-5, cherry-picked, set 3, MITF inhibitor project, dose response (AID 493073); assay type: functional;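 further: SK-MEL-5 melanoma cells with luciferase driven by the MITF target TRPM1 promoter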
T2 sequence (O75030 whole entry): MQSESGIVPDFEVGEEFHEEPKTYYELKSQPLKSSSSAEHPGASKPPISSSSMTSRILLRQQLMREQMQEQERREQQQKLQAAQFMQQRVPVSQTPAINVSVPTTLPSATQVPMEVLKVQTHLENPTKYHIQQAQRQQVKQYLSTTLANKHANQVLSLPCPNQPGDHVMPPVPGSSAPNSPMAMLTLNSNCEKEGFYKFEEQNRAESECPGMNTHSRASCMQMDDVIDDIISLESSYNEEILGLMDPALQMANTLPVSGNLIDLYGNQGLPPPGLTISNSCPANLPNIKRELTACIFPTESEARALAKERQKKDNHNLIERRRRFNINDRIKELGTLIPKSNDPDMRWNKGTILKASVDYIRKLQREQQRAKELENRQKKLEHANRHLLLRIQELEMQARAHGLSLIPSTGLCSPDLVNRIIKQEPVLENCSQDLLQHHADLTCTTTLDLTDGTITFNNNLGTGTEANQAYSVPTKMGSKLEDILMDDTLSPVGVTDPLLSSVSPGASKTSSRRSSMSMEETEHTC

[10] = Luminescence Cell-Based Dose Retest to Confirm Inhibitors of Cancer Stem Cells. [Related pubchem assays (depositor defined):AID2717, AID2721]; assay type: functional; conditions: Homo sapiens
INS1 = experiment: INS-1E survival protection against cytokine death – cell-based, luminescence, retest, dose response (AID 449756); assay type: functional; conditions: Rattus norvegicus;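 further: cell death triggered by IL-1 beta plus TNF-alpha plus IFN-gamma mixture; protective hits raise ATP signal compared with cytokine alone wells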
A-375 = experiment: proliferation inhibition in MITF-low A375 cells – cell-based, cherry-pick samples, set 2, counter-screen for MITF modulator project, dose response (AID 540335); assay type: functional; conditions: Homo sapiens
[11] = molecular target: Lysine-specific demethylase 4A (Homo sapiens, UniProt O75164); experiment: inhibition of JMJD2A H3K9me3 demethylation – biochemical, DELFIA europium, cherry-picked samples, selectivity assay for GASC-1 inhibitor project, dose response (AID 488840)
[12] = molecular target: T3, Zinc finger protein mex-5 (Caenorhabditis elegans, UniProt Q9XUB2); experiment: potency of MEX-5 RNA-binding blockers – biochemical, C. elegans, fluorescence polarization, dose response (AID 1960)
T3 sequence (Q9XUB2 whole entry): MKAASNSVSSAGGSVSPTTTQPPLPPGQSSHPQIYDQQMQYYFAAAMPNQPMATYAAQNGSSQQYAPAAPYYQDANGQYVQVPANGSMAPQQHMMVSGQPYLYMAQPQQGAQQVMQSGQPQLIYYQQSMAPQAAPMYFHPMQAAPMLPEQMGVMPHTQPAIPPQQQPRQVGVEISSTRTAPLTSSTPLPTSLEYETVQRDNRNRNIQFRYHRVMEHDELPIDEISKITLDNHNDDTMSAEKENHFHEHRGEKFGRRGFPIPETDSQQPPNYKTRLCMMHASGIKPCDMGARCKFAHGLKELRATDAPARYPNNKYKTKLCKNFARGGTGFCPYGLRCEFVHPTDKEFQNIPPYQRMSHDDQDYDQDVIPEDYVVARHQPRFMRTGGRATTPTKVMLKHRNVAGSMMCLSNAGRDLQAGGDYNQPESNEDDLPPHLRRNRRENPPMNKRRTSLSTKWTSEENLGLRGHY

[13] = molecular target: T4, RNA-binding protein pos-1 (Caenorhabditis elegans, UniProt G5EF15); experiment: disruptors of C. elegans POS-1 RNA interaction – biochemical, fluorescence polarization, dose response (AID 1964);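 further: purified POS-1 fused to maltose binding protein made in E. coli; potency of compounds blocking POS-1 binding to fluorescent RNA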
T4 sequence (G5EF15 whole entry): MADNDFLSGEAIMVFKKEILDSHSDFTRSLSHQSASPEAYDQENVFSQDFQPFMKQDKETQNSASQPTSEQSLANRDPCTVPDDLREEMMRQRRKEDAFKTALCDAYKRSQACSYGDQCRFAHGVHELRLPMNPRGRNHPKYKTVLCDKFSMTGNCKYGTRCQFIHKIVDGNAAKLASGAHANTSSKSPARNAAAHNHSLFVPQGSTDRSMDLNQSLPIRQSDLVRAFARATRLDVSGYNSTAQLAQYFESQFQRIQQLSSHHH

[14] = molecular target: T5, Lysine-specific demethylase 4C (Homo sapiens, UniProt Q9H3R0); experiment: inhibition of JMJD2C H3K9me3 demethylation – biochemical, DELFIA europium, cherry-picked samples, dose response (AID 488835); assay type: functional
T5 sequence (Q9H3R0 whole entry): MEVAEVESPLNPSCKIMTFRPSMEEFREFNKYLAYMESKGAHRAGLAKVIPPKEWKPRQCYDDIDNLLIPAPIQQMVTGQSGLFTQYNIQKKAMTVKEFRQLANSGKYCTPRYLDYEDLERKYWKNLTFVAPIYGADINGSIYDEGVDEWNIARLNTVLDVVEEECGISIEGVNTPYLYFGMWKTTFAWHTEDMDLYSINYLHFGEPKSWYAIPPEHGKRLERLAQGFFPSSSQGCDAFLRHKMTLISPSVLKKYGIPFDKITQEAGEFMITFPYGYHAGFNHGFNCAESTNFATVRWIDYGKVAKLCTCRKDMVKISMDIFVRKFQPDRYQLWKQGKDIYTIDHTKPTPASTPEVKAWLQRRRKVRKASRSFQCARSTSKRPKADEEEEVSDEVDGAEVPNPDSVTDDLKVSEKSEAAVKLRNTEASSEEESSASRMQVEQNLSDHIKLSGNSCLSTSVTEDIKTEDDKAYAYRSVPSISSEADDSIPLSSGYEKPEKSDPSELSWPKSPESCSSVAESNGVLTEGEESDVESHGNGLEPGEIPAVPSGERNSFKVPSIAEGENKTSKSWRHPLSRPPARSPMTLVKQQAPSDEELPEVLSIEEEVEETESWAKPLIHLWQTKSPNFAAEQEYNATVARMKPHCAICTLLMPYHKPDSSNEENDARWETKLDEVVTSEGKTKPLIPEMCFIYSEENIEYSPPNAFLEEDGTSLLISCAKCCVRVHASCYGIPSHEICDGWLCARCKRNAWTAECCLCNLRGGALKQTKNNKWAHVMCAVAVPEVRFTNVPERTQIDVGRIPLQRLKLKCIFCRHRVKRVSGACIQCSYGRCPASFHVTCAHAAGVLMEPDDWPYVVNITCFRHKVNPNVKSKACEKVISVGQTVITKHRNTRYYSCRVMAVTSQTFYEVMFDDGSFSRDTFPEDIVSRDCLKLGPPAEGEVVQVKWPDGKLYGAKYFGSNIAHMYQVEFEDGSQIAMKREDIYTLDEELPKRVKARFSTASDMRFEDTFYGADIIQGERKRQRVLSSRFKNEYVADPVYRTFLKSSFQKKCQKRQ

Cytochrome P450 2C19 = Cytochrome P450 2C19 (Homo sapiens, UniProt P33261); experiment: Cytochrome panel assay with activity outcomes. Panel member name: p450-cyp2c19 Compounds with AC50 equal or less than 10 uM are considered active; assay type: functional; conditions: read-out: AC50
Cytochrome P450 2C9 = Cytochrome P450 2C9 (Homo sapiens, UniProt P11712)
Leucine aminopeptidase = molecular target: T6, Leucine aminopeptidase (Plasmodium falciparum 3D7, UniProt Q8IL11); experiment: P. falciparum M17LAP inhibitors, primary screen, biochemical, fluorogenic H-Leu-NHMec substrate, 1536-well (AID 1619); assay type: functional
T6 sequence (Q8IL11 whole entry): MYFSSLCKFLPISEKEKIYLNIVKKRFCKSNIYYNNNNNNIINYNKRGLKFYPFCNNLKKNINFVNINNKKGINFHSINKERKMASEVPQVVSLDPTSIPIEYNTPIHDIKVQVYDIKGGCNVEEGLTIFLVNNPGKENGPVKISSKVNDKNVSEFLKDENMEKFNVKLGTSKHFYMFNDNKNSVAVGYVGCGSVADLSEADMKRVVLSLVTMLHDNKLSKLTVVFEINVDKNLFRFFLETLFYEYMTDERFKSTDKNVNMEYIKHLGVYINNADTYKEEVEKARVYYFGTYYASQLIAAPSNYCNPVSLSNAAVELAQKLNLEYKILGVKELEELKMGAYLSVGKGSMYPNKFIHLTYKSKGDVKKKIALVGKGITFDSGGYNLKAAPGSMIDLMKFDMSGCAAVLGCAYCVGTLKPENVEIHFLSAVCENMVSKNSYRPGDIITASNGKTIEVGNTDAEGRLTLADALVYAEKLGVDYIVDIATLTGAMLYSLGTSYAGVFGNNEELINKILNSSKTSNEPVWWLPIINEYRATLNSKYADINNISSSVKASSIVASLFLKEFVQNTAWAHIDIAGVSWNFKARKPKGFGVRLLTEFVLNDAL

Jurkat = experiment: blockers of NF-kB activation in T cells – Jurkat, luciferase reporter, luminescence, B- and T-cell, dose response (AID 489004); assay type: functional, cell-based; conditions: Homo sapiens;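 further: NF-kB luciferase reporter Jurkat cells stimulated with PMA plus ionomycin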
[15] = HEK-293T viability loss, compound-treated – cell-based, uHTS hits, cytotoxicity control for B/T-cell NF-kB inhibitor project, dose response (AID 489019); assay type: functional;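 further: IC50 reflects cytotoxicity as loss of cell viability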

Chain of Cytochrome P450 2D6 (P10635 whole entry): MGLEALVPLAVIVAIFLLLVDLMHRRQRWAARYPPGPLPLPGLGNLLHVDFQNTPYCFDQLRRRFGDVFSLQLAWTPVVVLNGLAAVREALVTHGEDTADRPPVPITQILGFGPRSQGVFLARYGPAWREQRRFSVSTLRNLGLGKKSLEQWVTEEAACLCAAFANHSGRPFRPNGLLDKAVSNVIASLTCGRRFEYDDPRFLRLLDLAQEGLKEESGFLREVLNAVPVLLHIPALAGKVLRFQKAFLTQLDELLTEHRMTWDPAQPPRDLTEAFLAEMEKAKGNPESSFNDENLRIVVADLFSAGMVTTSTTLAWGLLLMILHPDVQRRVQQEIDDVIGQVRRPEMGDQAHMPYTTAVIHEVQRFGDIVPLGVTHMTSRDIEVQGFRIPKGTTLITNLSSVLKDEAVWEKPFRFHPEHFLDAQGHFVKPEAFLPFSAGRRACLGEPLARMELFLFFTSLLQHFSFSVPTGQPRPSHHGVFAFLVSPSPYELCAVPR
Chain of Lysine-specific demethylase 4A (O75164 whole entry): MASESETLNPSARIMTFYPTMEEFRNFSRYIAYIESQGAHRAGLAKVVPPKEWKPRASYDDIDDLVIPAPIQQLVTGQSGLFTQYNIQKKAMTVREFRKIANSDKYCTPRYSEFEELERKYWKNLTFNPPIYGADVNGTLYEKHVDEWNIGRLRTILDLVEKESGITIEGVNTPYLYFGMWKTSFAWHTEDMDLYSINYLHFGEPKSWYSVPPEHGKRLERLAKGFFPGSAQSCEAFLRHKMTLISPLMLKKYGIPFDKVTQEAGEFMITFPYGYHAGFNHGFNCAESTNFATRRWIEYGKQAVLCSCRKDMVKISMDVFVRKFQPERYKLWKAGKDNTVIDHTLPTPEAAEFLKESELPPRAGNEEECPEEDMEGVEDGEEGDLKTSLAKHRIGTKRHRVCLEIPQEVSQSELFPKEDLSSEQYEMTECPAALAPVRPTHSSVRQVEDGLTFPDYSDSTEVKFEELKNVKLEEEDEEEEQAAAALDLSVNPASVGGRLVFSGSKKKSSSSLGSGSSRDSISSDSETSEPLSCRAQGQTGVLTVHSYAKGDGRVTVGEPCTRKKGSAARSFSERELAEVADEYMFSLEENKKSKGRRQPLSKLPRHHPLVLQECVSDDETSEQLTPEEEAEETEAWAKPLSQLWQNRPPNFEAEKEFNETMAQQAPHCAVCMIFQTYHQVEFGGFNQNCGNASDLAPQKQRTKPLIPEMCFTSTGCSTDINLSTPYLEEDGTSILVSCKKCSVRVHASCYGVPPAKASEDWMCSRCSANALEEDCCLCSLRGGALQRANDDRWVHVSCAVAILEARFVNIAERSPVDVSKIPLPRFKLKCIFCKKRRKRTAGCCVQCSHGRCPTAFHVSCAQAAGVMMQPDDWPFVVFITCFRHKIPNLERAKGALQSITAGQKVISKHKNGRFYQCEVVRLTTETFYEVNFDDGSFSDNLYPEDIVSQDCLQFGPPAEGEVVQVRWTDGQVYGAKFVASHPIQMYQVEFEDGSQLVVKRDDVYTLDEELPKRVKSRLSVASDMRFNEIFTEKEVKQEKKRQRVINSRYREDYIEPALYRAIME
Chain of Cytochrome P450 2C19 (P33261 whole entry): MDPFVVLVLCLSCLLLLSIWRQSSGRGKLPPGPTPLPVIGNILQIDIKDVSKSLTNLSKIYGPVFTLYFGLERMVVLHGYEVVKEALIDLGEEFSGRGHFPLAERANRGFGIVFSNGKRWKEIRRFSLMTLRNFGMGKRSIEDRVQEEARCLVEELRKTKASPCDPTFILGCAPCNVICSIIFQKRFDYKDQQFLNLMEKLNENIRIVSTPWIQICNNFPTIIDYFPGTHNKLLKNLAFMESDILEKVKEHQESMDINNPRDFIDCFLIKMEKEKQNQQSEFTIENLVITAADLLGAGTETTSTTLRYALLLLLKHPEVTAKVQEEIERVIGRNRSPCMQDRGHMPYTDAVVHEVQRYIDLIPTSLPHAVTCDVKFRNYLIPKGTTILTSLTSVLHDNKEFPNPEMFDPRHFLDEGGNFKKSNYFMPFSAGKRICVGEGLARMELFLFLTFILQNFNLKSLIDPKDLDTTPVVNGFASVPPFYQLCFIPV
Chain of Cytochrome P450 2C9 (P11712 whole entry): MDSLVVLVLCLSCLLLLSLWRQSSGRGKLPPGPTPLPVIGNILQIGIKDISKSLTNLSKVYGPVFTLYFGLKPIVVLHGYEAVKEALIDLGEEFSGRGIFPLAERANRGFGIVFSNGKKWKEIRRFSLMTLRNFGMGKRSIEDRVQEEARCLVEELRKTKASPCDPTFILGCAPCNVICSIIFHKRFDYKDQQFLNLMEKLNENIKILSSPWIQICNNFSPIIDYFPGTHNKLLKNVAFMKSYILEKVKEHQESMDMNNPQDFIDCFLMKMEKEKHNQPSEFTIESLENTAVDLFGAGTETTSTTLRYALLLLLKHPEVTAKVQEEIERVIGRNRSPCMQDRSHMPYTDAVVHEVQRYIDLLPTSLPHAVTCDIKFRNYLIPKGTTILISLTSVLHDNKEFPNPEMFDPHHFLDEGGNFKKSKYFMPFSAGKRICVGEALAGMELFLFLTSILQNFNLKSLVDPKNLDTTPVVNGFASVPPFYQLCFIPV

N#Cc1cc(Oc2cccc3cccnc23)c(-n2nnc3ccccc32)cc1C#N
CC50 [1]: > 40 µM (active) | EC50 [2]: > 260 µM (inactive) | EC50 (HEK293 [3]): > 59.6 µM (inactive) | AC50 [4]: 2.77 µM (active) | EC50 (HEK293 [5]): > 59.6 µM (inactive) | EC50 [6]: 2.25 µM (active) | EC50 [7]: 22.6 µM (active)

O=C(CNC(=O)c1cccs1)c1ccc(Br)cc1
AC50 (HeLa): 59.4 µM (active)

O=C1OC(=O)[C@@H]2[C@@H]1[C@@H]1CC[C@H]2O1
AC50 (Cytochrome P450 2D6): inconclusive

C=CCn1c(C)cc(C(=O)CN2NS(=O)(=O)c3ccccc3C2=O)c1C
EC50 (HEK293 [3]): > 59.6 µM (inactive) | EC50 (HEK293 [5]): > 2.21 µM (active)

Cc1ccc(Sc2cnc3ccccc3n2)cc1
AC50 (HeLa): 44.3 µM (active) | EC50 (H4): 10.1 µM (active) | EC50 [8]: 3.64 µM (active)

Cc1ccc(C)c(NC(=O)/C(C#N)=C/c2cn(CC(=O)NCc3ccco3)c3ccccc23)c1
AC50 [9]: 6.56 µM (active) | AC50 [10]: 57.8 µM (active) | AC50 (INS1): 3.67 µM (active) | AC50 (A-375): 33.9 µM (active)

Cn1c(=O)c2[nH]c(N=NNc3ccccc3F)nc2n(C)c1=O
AC50 [11]: 17.3 µM (active) | EC50 [12]: 21.7 µM (active) | EC50 [13]: 62 µM (active) | AC50 [14]: 8.83 µM (active)

Cc1ccc(NC(=O)c2cc(NC(=O)CCC(=O)O)ccc2N2CCCCC2)cc1
AC50 (Cytochrome P450 2D6): inconclusive | AC50 (Cytochrome P450 2C19): 35.5 µM (inconclusive) | AC50 (Cytochrome P450 2C9): 14.1 µM (inconclusive) | IC50 (Leucine aminopeptidase): 11.8 µM (active)

CCCCCCCCn1ccc(=N)cc1
IC50 (Jurkat): > 80 µM (inactive) | IC50 [15]: > 80 µM (inactive) | AC50 (INS1): 0.585 µM (active)
